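Grown in 96-well plates, cells were treated for 48 hours with each compound at five concentrations. Insufficient inhibition: endpoint recorded as highest concentration tested. At the GI50, growth is halved. TGI: total growth inhibition.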
Columns and labels:
Experiment in all cases: growth of human tumour cells (NCI), 48 h
786-0 renal = test system: 786-0 renal
A498 renal = test system: A498 renal
A549 NSCLC = test system: A549 NSCLC
ACHN renal = test system: ACHN renal
BT-549 breast = test system: BT-549 breast
CAKI-1 renal = test system: CAKI-1 renal
CCRF-CEM leukemia = test system: CCRF-CEM leukemia
COLO 205 colon = test system: COLO 205 colon
DU-145 prostate = test system: DU-145 prostate
EKVX NSCLC = test system: EKVX NSCLC
HCC-2998 colon = test system: HCC-2998 colon
HCT-116 colon = test system: HCT-116 colon
HCT-15 colon = test system: HCT-15 colon
HOP-62 NSCLC = test system: HOP-62 NSCLC
HS 578T breast = test system: HS 578T breast
HT29 colon = test system: HT29 colon
IGROV1 ovarian = test system: IGROV1 ovarian
KM12 colon = test system: KM12 colon
LOX IMVI melanoma = test system: LOX IMVI melanoma
M14 melanoma = test system: M14 melanoma
MALME-3M melanoma = test system: MALME-3M melanoma
MCF7 breast = test system: MCF7 breast
MDA-MB-231 breast = test system: MDA-MB-231 breast
MDA-MB-435 = test system: MDA-MB-435
MOLT-4 leukemia = test system: MOLT-4 leukemia
NCI-H226 lung = test system: NCI-H226 lung
NCI-H23 lung = test system: NCI-H23 lung
NCI-H460 lung = test system: NCI-H460 lung

For `CCCC1(CN2c3ccccc3Sc3ccc(Cl)cc32)CCN(CC)C1` (stereo not given), the GI50 (786-0 renal) was 1.89 µM, the TGI (786-0 renal) was 3.52 µM and the GI50 (A498 renal) was 1.6 µM. The TGI (A498 renal) was 3.12 µM, the GI50 (A549 NSCLC) was 1.78 µM and the TGI (A549 NSCLC) was 3.38 µM. For the same molecule, the GI50 (ACHN renal) was 1.76 µM, the TGI (ACHN renal) was 3.31 µM and the GI50 (BT-549 breast) was 1.8 µM. It also gave a TGI (BT-549 breast) of 3.37 µM, a GI50 (CAKI-1 renal) of 1.7 µM and a TGI (CAKI-1 renal) of 3.2 µM. For the same molecule, the GI50 (CCRF-CEM leukemia) was 3.49 µM, the TGI (CCRF-CEM leukemia) was over 100 µM and the GI50 (COLO 205 colon) was 1.64 µM. For the same molecule, the TGI (COLO 205 colon) was 3.3 µM, the GI50 (DU-145 prostate) was 1.81 µM and the TGI (DU-145 prostate) was 3.37 µM. For the same molecule, the GI50 (EKVX NSCLC) was 1.77 µM, the TGI (EKVX NSCLC) was 3.55 µM and the GI50 (HCC-2998 colon) was 1.68 µM. It also gave a TGI (HCC-2998 colon) of 3.27 µM, a GI50 (HCT-116 colon) of 1.81 µM and a TGI (HCT-116 colon) of 3.29 µM. For the same molecule, the GI50 (HCT-15 colon) was 1.88 µM, the TGI (HCT-15 colon) was 3.84 µM and the GI50 (HOP-62 NSCLC) was 1.59 µM. For the same molecule, the TGI (HOP-62 NSCLC) was 3.08 µM, the GI50 (HS 578T breast) was 1.83 µM and the TGI (HS 578T breast) was 4.88 µM. The GI50 (HT29 colon) was 1.88 µM, the TGI (HT29 colon) was 3.75 µM and the GI50 (IGROV1 ovarian) was 1.92 µM. It also gave a TGI (IGROV1 ovarian) of 3.69 µM, a GI50 (KM12 colon) of 1.65 µM and a TGI (KM12 colon) of 3.18 µM. It also gave a GI50 (LOX IMVI melanoma) of 1.67 µM, a TGI (LOX IMVI melanoma) of 3.37 µM and a GI50 (M14 melanoma) of 1.86 µM. The TGI (M14 melanoma) was 3.49 µM, the GI50 (MALME-3M melanoma) was 1.88 µM and the TGI (MALME-3M melanoma) was 3.63 µM. For the same molecule, the GI50 (MCF7 breast) was 1.86 µM, the TGI (MCF7 breast) was 3.5 µM and the GI50 (MDA-MB-231 breast) was 1.88 µM. It also gave a TGI (MDA-MB-231 breast) of 3.55 µM, a GI50 (MDA-MB-435) of 1.79 µM and a TGI (MDA-MB-435) of 3.47 µM. The GI50 (MOLT-4 leukemia) was 3.27 µM, the TGI (MOLT-4 leukemia) was over 100 µM and the GI50 (NCI-H226 lung) was 1.74 µM. The TGI (NCI-H226 lung) was 3.76 µM, the GI50 (NCI-H23 lung) was 1.75 µM and the TGI (NCI-H23 lung) was 3.55 µM. It also gave a GI50 (NCI-H460 lung) of 1.94 µM.

Reference: PubChem BioAssay (NCI)
